Laboratory results: patent US12239645B2, “Targeted dosing for the treatment of complement mediated disorders” (Achillion Pharmaceuticals, Inc., priority 2018, dated 2025)
Where two headings read alike, the source gives them in different places.

Legend:
[1] = Multiple ascending dose (MAD) study: multiple-dose pharmacokinetics; assay type: in vivo, human; conditions: for concentration at 120 h: Day 6, 0 hr post-dose (120 h); for concentration at 120 h / concentration at 132 h / concentration at 144 h / concentration at 156 h / concentration at 168 h / concentration at 192 h / concentration at 288 h / concentration at 300 h / concentration at 312 h / concentration at 324 h: read-out: Pre-dose (trough) plasma concentration, Mean; for concentration at 132 h: Day 6, 12 hr post-dose (132 h); for concentration at 144 h: Day 7, 0 hr post-dose (144 h); for concentration at 156 h: Day 7, 12 hr post-dose (156 h); for concentration at 168 h: Day 8, 0 hr post-dose (168 h); for concentration at 192 h: Day 9, 0 hr post-dose (192 h); for concentration at 288 h: Day 13, 0 hr post-dose (288 h); for concentration at 300 h: Day 13, 12 hr post-dose (300 h); for concentration at 312 h: Day 14, 0 hr post-dose (312 h); for concentration at 324 h: Day 14, 12 hr post-dose (324 h)
Procedure: A multiple ascending dose (MAD) study of Compound 1 with two additional single-dose cohorts was also completed. […] Secondary objectives included evaluation of the pharmacokinetic (PK) profile and the relationship between Compound 1 PK and pharmacodynamic (PD) characteristics, that is, the inhibition of complement alternative pathway (AP) activity (PK/PD). In the MAD study, multiple-dose pharmacokinetics and pharmacodynamics of Compound 1 were evaluated in four dose groups administered Compound 1 (40, 80, 120 and 200 mg BID) in the fasted state for 14-days (Table 3). Eight subjects received active drug in each group; eight subjects received placebo in the first dose group (40 mg) and two subjects received placebo in each of the other three dose groups. Two additional cohorts were administered Compound 1 at single doses of 240 mg (fasted subjects) and 120 mg (fed subjects) (Table 3). The two single-dose cohorts each comprised six subjects receiving active drug and two subjects receiving placebo. Plasma and serum samples for PK and PD assessment were collected on selected days prior to dosing (at local troughs), and on days 1, 7, and 14 at 0.5-hour to 2-hour intervals for more detailed assessment.

[2] = test system: Bb fragment of complement Factor B; assay: MAD study single-dose cohorts: plasma Bb concentration by ELISA; assay type: in vivo, human; conditions: 240 mg single dose
Procedure: FIG. 15 is a graphical display of mean plasma Bb concentration as determined by ELISA assay for all subjects in the first 24 hours after administration of Compound 1 at single doses of 240 mg in fasted subjects (n=6), 120 mg in fed subjects (n=6) and placebo (n=4). Horizontal dashed gridlines represent: upper limit of normal (1.42 μg/ml); lower limit of normal (0.48 μg/ml); and lower limit of quantitation (LLOQ) (0.33 μg/ml). The x-axis is Time in hours and the y-axis is Mean Plasma Bb Concentration measured in μg/mL.
Serum AP hemolysis activity was assessed in samples collected at predefined time points from Day 1 (pre-dose) through Day 7. Ex vivo serum AP inhibition was more prolonged in the 240 mg dose group than previously observed in the SAD study at doses up to 120 mg (FIG. 14). […] Mean pre-dose (Day 1, 0 h) activity among active subjects was 123.02% (240 mg) and 110.43% (120 mg). Activity was reduced to 10% or lower from 1.5 h through 16 h in the 240 mg group, and from 2 h through 6 h in the 120 mg group. Activity was recovered to nearly pre-dose levels by 48 hours. AP activity in placebo subjects in contrast varied little from the pre-dose value of 109.52%, with a minimum value among all time points of 81.46%. […]

[3] = human, plasma, oral, 120 mg, 120 mg BID
[4] = human, plasma, oral, 200 mg, 200 mg BID

- AUC(0-t) ([1]; human, plasma, oral, 120 mg, 120 mg BID × 14 Days, Day 1, read-out: AUC(0-12), Mean): 1200 ng·h/mL
- Cmax ([1]; human, plasma, oral, 120 mg, 120 mg BID × 14 Days, Day 1, read-out: Cmax, Mean): 353 ng/mL
- Tmax ([1]; human, plasma, oral, 120 mg, 120 mg BID × 14 Days, Day 7): 1.75 h
- AUC(0-t) ([1]; human, plasma, oral, 120 mg, 120 mg BID × 14 Days, Day 7, read-out: AUC(0-12), Mean): 3880 ng·h/mL
- AUC(0-t) ([1]; human, plasma, oral, 120 mg, 120 mg BID × 14 Days, Day 7, read-out: AUC(0-24), Mean): 7750 ng·h/mL
- Cmax ([1]; human, plasma, oral, 120 mg, 120 mg BID × 14 Days, Day 7, read-out: Cmax, Mean): 885 ng/mL
- Tmax ([1]; human, plasma, oral, 120 mg, 120 mg BID × 14 Days, Day 14): 2.5 h
- AUC(0-t) ([1]; human, plasma, oral, 120 mg, 120 mg BID × 14 Days, Day 14, read-out: AUC(0-12), Mean): 3990 ng·h/mL
- AUC(0-t) ([1]; human, plasma, oral, 120 mg, 120 mg BID × 14 Days, Day 14, read-out: AUC(0-24), Mean): 7990 ng·h/mL
- Cmax ([1]; human, plasma, oral, 120 mg, 120 mg BID × 14 Days, Day 14, read-out: Cmax, Mean): 887 ng/mL
- concentration at 120 h [1, 3]: 165 ng/mL
- concentration at 132 h [1, 3]: 90.6 ng/mL
- concentration at 144 h [1, 3]: 125 ng/mL
- concentration at 156 h [1, 3]: 67.2 ng/mL
- concentration at 168 h [1, 3]: 164 ng/mL
- concentration at 192 h [1, 3]: 156 ng/mL
- concentration at 288 h [1, 3]: 136 ng/mL
- concentration at 300 h [1, 3]: 88 ng/mL
- concentration at 312 h [1, 3]: 173 ng/mL
- concentration at 324 h [1, 3]: 76.6 ng/mL
- Cmax ([1]; human, plasma, oral, 120 mg, 120 mg BID, read-out: Cmax): < 1000 ng/mL
- Tmax ([1]; human, plasma, oral, 200 mg, 200 mg BID × 14 Days, Day 1): 1.63 h
- AUC(0-t) ([1]; human, plasma, oral, 200 mg, 200 mg BID × 14 Days, Day 1, read-out: AUC(0-12), Mean): 1820 ng·h/mL
- Cmax ([1]; human, plasma, oral, 200 mg, 200 mg BID × 14 Days, Day 1, read-out: Cmax, Mean): 440 ng/mL
- Tmax ([1]; human, plasma, oral, 200 mg, 200 mg BID × 14 Days, Day 7): 2.06 h
- AUC(0-t) ([1]; human, plasma, oral, 200 mg, 200 mg BID × 14 Days, Day 7, read-out: AUC(0-12), Mean): 9350 ng·h/mL
- AUC(0-t) ([1]; human, plasma, oral, 200 mg, 200 mg BID × 14 Days, Day 7, read-out: AUC(0-24), Mean): 18700 ng·h/mL
- Cmax ([1]; human, plasma, oral, 200 mg, 200 mg BID × 14 Days, Day 7, read-out: Cmax, Mean): 1870 ng/mL
- Tmax ([1]; human, plasma, oral, 200 mg, 200 mg BID × 14 Days, Day 14): 1.81 h
- AUC(0-t) ([1]; human, plasma, oral, 200 mg, 200 mg BID × 14 Days, Day 14, read-out: AUC(0-12), Mean): 8240 ng·h/mL
- AUC(0-t) ([1]; human, plasma, oral, 200 mg, 200 mg BID × 14 Days, Day 14, read-out: AUC(0-24), Mean): 16500 ng·h/mL
- Cmax ([1]; human, plasma, oral, 200 mg, 200 mg BID × 14 Days, Day 14, read-out: Cmax, Mean): 1630 ng/mL
- concentration at 120 h [1, 4]: 431 ng/mL
- concentration at 132 h [1, 4]: 241 ng/mL
- concentration at 144 h [1, 4]: 385 ng/mL
- concentration at 156 h [1, 4]: 241 ng/mL
- concentration at 168 h [1, 4]: 381 ng/mL
- concentration at 192 h [1, 4]: 377 ng/mL
- concentration at 288 h [1, 4]: 376 ng/mL
- concentration at 300 h [1, 4]: 272 ng/mL
- concentration at 312 h [1, 4]: 415 ng/mL
- concentration at 324 h [1, 4]: 235 ng/mL
- concentration at 12 hr ([1]; human, plasma, oral, 200 mg, 200 mg BID, all 12 hr (evening) troughs, read-out: Mean C(12), steady-state trough): 247 ng/mL
- Cmax ([1]; human, plasma, oral, 200 mg, 200 mg BID, read-out: Cmax): < 2000 ng/mL
- C0 at 0 h ([1]; human, plasma, oral, 40 mg BID, all 0 hr (morning) troughs, read-out: Mean C(0), steady-state trough): 23.4 ng/mL
- C0 at 0 hr ([1]; human, plasma, oral, 80 mg BID, all 0 hr (morning) troughs, read-out: Mean C(0), steady-state trough): 83.7 ng/mL
- C0 at 0 hr ([1]; human, plasma, oral, 120 mg BID, all 0 hr (morning) troughs, read-out: Mean C(0), steady-state trough): 153 ng/mL
- C0 at 0 hr ([1]; human, plasma, oral, 200 mg BID, all 0 hr (morning) troughs, read-out: Mean C(0), steady-state trough): 392 ng/mL
- diurnal metabolic pattern ([1]; humans, BID dosing, C(0) morning vs C(12) evening): exhibits a diurnal metabolic pattern
Compound: CC(=O)c1nn(CC(=O)N2[C@H](C(=O)Nc3nc(Br)ccc3C)C[C@@]3(C)C[C@@H]23)c2ccc(-c3cnc(C)nc3)cc12 [Compound 1, (1R,3S,5R)-2-(2-(3-acetyl-5-(2-methylpyrimidin-5-yl)-1H-indazol-1-yl)acetyl)-N-(6-bromo-3-methylpyridin-2-yl)-5-methyl-2-azabicyclo[3.1.0]hexane-3-carboxamide]
- time plasma Bb remained near its nadir post-dose [2]: at least 16 hours
